This is an account of results in patent US12344600B2, “c-Myc mRNA translation modulators and uses thereof in the treatment of cancer” (Anima Biotech Inc., priority 2022, dated 2025).

The test concerns c-Myc. The experiment in a line: c-Myc immunofluorescence assay. In kind it is cell-based, human. The note with it: A549 cells, 24 hours, anti-c-Myc immunofluorescence. A digest of the protocol:
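A549 NSCLC cells grown 48 h, then treated 24 h with increasing compound concentrations; fixed in 4% paraformaldehyde, stained with anti-c-Myc antibody plus fluorescent secondary and DAPI. Per-cell c-Myc fluorescence quantified by high-content imaging at 20×; dose-response fitted by logistic regression to give EC50.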
On to `CNC(=O)N1CCN(c2nc(-c3ccc(OC)cc3)no2)CC1` [Compound 191, 4-(3-(4-methoxyphenyl)-1,2,4-oxadiazol-5-yl)-N-methylpiperazine-1-carboxamide], for which the “Myc Efficacy (−LogEC50)” value is “+ (+ >3 and <5)”. With `COc1ccc(-c2noc(N3CCC(C(=O)Nc4ccc(Cl)cc4)CC3)n2)cc1` [Compound 192, N-(4-chlorophenyl)-1-(3-(4-methoxyphenyl)-1,2,4-oxadiazol-5-yl)piperidine-4-carboxamide] the entry was “+ (+ >3 and <5)”; with `COc1ccc(-c2noc(N3CCN(C(=O)Nc4ccc(Cl)cc4)CC3)n2)cc1` [Compound 193, N-(4-chlorophenyl)-4-(3-(4-methoxyphenyl)-1,2,4-oxadiazol-5-yl)piperazine-1-carboxamide], “++ (++ ≥5 and <6)”. The value for `COc1ccc(-c2noc(N3CCN(C(=O)Nc4cccc(Cl)c4)CC3)n2)cc1` [Compound 194, N-(3-chlorophenyl)-4-(3-(4-methoxyphenyl)-1,2,4-oxadiazol-5-yl)piperazine-1-carboxamide] was “+ (+ >3 and <5)”. In the case of `COc1ccc(-c2noc(N3CCN(C(=O)Nc4ccccc4Cl)CC3)n2)cc1` [Compound 195, N-(2-chlorophenyl)-4-(3-(4-methoxyphenyl)-1,2,4-oxadiazol-5-yl)piperazine-1-carboxamide], the “Myc Efficacy (−LogEC50)” value was “+ (+ >3 and <5)”. Take `COc1ccc(-c2coc(N3CCC(C(=O)NCC4CCN(Cc5ccc(C)cc5)C4)CC3)n2)cc1` (stereo not drawn) [Compound 196, 1-(4-(4-methoxyphenyl)oxazol-2-yl)-N-((1-(4-methylbenzyl)pyrrolidin-3-yl)methyl)piperidine-4-carboxamide]: the “Myc Efficacy (−LogEC50)” value was “++ (++ ≥5 and <6)”. Turning to `COc1ccc(-c2noc(C3CCC(C(=O)NCC4CCN(CCO)C4)CC3)n2)cc1` (stereo not drawn) [Compound 197, (1r,4r)-N-((1-(2-hydroxyethyl)pyrrolidin-3-yl)methyl)-4-(3-(4-methoxyphenyl)-1,2,4-oxadiazol-5-yl)cyclohexane-1-carboxamide], the “Myc Efficacy (−LogEC50)” value was “+ (+ >3 and <5)”. For the molecule `Cc1ccc(CN2CCC(CNC(=O)C3CCN(c4nc(-c5cccc(C#N)c5)no4)CC3)C2)cc1` (stereo not drawn) [Compound 198, 1-(3-(3-cyanophenyl)-1,2,4-oxadiazol-5-yl)-N-((1-(4-methylbenzyl)pyrrolidin-3-yl)methyl)piperidine-4-carboxamide], the “Myc Efficacy (−LogEC50)” value is “++ (++ ≥5 and <6)”. As to `Cc1ccc(CN2CCC(CNC(=O)C3CCN(c4nc(-c5cccc(O)c5)no4)CC3)C2)cc1` (stereo not drawn) [Compound 199, 1-(3-(3-hydroxyphenyl)-1,2,4-oxadiazol-5-yl)-N-((1-(4-methylbenzyl)pyrrolidin-3-yl)methyl)piperidine-4-carboxamide], the “Myc Efficacy (−LogEC50)” value is “+ (+ >3 and <5)”. Consider `O=C(NCc1cccnc1)C1CCN(c2nc(-c3ccncc3)no2)CC1` [Compound 200, N-(pyridin-3-ylmethyl)-1-(3-(pyridin-4-yl)-1,2,4-oxadiazol-5-yl)piperidine-4-carboxamide], for which the “Myc Efficacy (−LogEC50)” value is “+ (+ >3 and <5)”. With `COc1ccc(-c2coc(N3CCC(C(=O)NCc4cccnc4)CC3)n2)cc1` [Compound 201, 1-(4-(4-methoxyphenyl)oxazol-2-yl)-N-(pyridin-3-ylmethyl)piperidine-4-carboxamide] the entry was “+ (+ >3 and <5)”; with `O=C(C1CCN(c2nc(-c3ccncc3)no2)CC1)N1CCOCC1` [Compound 202, morpholino(1-(3-(pyridin-4-yl)-1,2,4-oxadiazol-5-yl)piperidin-4-yl)methanone], “+ (+ >3 and <5)”; with `COc1ccc(-c2coc(N3CCC(C(=O)N4CCOCC4)CC3)n2)cc1` [Compound 203, (1-(4-(4-methoxyphenyl)oxazol-2-yl)piperidin-4-yl)(morpholino)methanone], “+ (+ >3 and <5)”. For the molecule `COc1ccc(-c2noc(N3CCC(C(=O)N4CCN(C)CC4)CC3)n2)cc1` [Compound 204, (1-(3-(4-methoxyphenyl)-1,2,4-oxadiazol-5-yl)piperidin-4-yl)(4-methylpiperazin-1-yl)methanone], the “Myc Efficacy (−LogEC50)” value is “+ (+ >3 and <5)”. The value for `COc1ccc(-c2noc(N3CCC(C(=O)N4CCN(c5ccccc5)CC4)CC3)n2)cc1` [Compound 205, (1-(3-(4-methoxyphenyl)-1,2,4-oxadiazol-5-yl)piperidin-4-yl)(4-phenylpiperazin-1-yl)methanone] was “+ (+ >3 and <5)”; that for `COc1ccc(-c2noc(N3CCN(C(=O)NCC4CCN(C)C4)CC3)n2)cc1` (stereo not drawn) [Compound 206, 4-(3-(4-methoxyphenyl)-1,2,4-oxadiazol-5-yl)-N-((1-methylpyrrolidin-3-yl)methyl)piperazine-1-carboxamide] was “+ (+ >3 and <5)”.

On to `COc1ccc(-c2noc(N3CCN(C(=O)NCCCN4CCC(Cc5ccccc5)CC4)CC3)n2)cc1` [Compound 207, N-(3-(4-benzylpiperidin-1-yl)propyl)-4-(3-(4-methoxyphenyl)-1,2,4-oxadiazol-5-yl)piperazine-1-carboxamide], for which the “Myc Efficacy (−LogEC50)” value was “+++ (+++ ≥6)”. The value for `COc1ccc(-c2noc(N3CCN(C(=O)NCCCN4CCC(C)CC4)CC3)n2)cc1` [Compound 208, 4-(3-(4-methoxyphenyl)-1,2,4-oxadiazol-5-yl)-N-(3-(4-methylpiperidin-1-yl)propyl)piperazine-1-carboxamide] was “++ (++ ≥5 and <6)”. Consider `COc1ccc(-c2noc(N3CCN(C(=O)Nc4ccccc4)CC3)n2)cc1` [Compound 209, 4-(3-(4-methoxyphenyl)-1,2,4-oxadiazol-5-yl)-N-phenylpiperazine-1-carboxamide], for which the “Myc Efficacy (−LogEC50)” value was “+ (+ >3 and <5)”.

Take `COc1ccc(-c2noc(N3CCC(C(=O)Nc4ccc(C)cc4)CC3)n2)cc1` [Compound 210, 1-(3-(4-methoxyphenyl)-1,2,4-oxadiazol-5-yl)-N-(p-tolyl)piperidine-4-carboxamide]: the “Myc Efficacy (−LogEC50)” value is “+ (+ >3 and <5)”. Take `COc1ccc(-c2noc(N3CCC(C(=O)Nc4cccc(C)c4)CC3)n2)cc1` [Compound 211, 1-(3-(4-methoxyphenyl)-1,2,4-oxadiazol-5-yl)-N-(m-tolyl)piperidine-4-carboxamide]: the “Myc Efficacy (−LogEC50)” value was “+ (+ >3 and <5)”. The value for `COc1ccc(-c2noc(N3CCC(C(=O)Nc4cccc(Cl)c4)CC3)n2)cc1` [Compound 212, N-(3-chlorophenyl)-1-(3-(4-methoxyphenyl)-1,2,4-oxadiazol-5-yl)piperidine-4-carboxamide] was “+ (+ >3 and <5)”. In the case of `COc1ccc(-c2noc(N3CCC(C(=O)Nc4ccccc4C)CC3)n2)cc1` [Compound 213, 1-(3-(4-methoxyphenyl)-1,2,4-oxadiazol-5-yl)-N-(o-tolyl)piperidine-4-carboxamide], the “Myc Efficacy (−LogEC50)” value is “+ (+ >3 and <5)”.

With `COc1ccc(-c2noc(N3CCC(c4nc5ccccc5[nH]4)CC3)n2)cc1` [Compound 214, 5-(4-(1H-benzo[d]imidazol-2-yl)piperidin-1-yl)-3-(4-methoxyphenyl)-1,2,4-oxadiazole], the “Myc Efficacy (−LogEC50)” value is “+ (+ >3 and <5)”.

Consider `COc1ccc(-c2noc(C3CCC(C(=O)NCC4CCN(CCO)C4)CC3)n2)cc1` (stereo not drawn) [Compound 215, (1s,4s)-N-((1-(2-hydroxyethyl)pyrrolidin-3-yl)methyl)-4-(3-(4-methoxyphenyl)-1,2,4-oxadiazol-5-yl)cyclohexane-1-carboxamide], for which the “Myc Efficacy (−LogEC50)” value was “+ (+ >3 and <5)”. With `COc1ccc(-c2noc(N3CCN(C(=O)N4CCC(Oc5ccccc5)CC4)CC3)n2)cc1` [Compound 216, (4-(3-(4-methoxyphenyl)-1,2,4-oxadiazol-5-yl)piperazin-1-yl)(4-phenoxypiperidin-1-yl)methanone] the entry was “+ (+ >3 and <5)”; with `COc1ccc(-c2noc(N3CCC(C(=O)NCC4CCN(C)CC4)CC3)n2)cc1` [Compound 217, 1-(3-(4-methoxyphenyl)-1,2,4-oxadiazol-5-yl)-N-((1-methylpiperidin-4-yl)methyl)piperidine-4-carboxamide], “− (− ≤3)”. With `COc1ccc(-c2noc(N3CCC(C(=O)NC4CCN(C)CC4)CC3)n2)cc1` [Compound 218, 1-(3-(4-methoxyphenyl)-1,2,4-oxadiazol-5-yl)-N-(1-methylpiperidin-4-yl)piperidine-4-carboxamide] the entry was “− (− ≤3)”; with `COc1ccc(-c2noc(N3CCC(C(=O)NCC4CCN(C)C4)CC3)n2)cc1` (stereo not drawn) [Compound 219, 1-(3-(4-methoxyphenyl)-1,2,4-oxadiazol-5-yl)-N-((1-methylpyrrolidin-3-yl)methyl)piperidine-4-carboxamide], “− (− ≤3)”. With `COc1ccc(-c2noc(N3CCC(C(=O)NCC4CCN(CC5CC5)C4)CC3)n2)cc1` (stereo not drawn) [Compound 220, N-((1-(cyclopropylmethyl)pyrrolidin-3-yl)methyl)-1-(3-(4-methoxyphenyl)-1,2,4-oxadiazol-5-yl)piperidine-4-carboxamide], the “Myc Efficacy (−LogEC50)” value was “+ (+ >3 and <5)”. Take `COc1ccc(-c2noc(N3CCN(C(=O)NCC4CCN(CC5CC5)C4)CC3)n2)cc1` (stereo not drawn) [Compound 221, N-((1-(cyclopropylmethyl)pyrrolidin-3-yl)methyl)-4-(3-(4-methoxyphenyl)-1,2,4-oxadiazol-5-yl)piperazine-1-carboxamide]: the “Myc Efficacy (−LogEC50)” value was “+ (+ >3 and <5)”. On to `COc1ccc(-c2noc(N3CCC(C(=O)NCC4CCN(C(=O)c5ccc(C)cc5)C4)CC3)n2)cc1` (stereo not drawn) [Compound 222, 1-(3-(4-methoxyphenyl)-1,2,4-oxadiazol-5-yl)-N-((1-(4-methylbenzoyl)pyrrolidin-3-yl)methyl)piperidine-4-carboxamide], for which the “Myc Efficacy (−LogEC50)” value was “++ (++ ≥5 and <6)”. The value for `COc1ccc(-c2noc(N3CCC(C(=O)NCC4CCN(Cc5ccc(C)cn5)C4)CC3)n2)cc1` (stereo not drawn) [Compound 223, 1-(3-(4-methoxyphenyl)-1,2,4-oxadiazol-5-yl)-N-((1-((5-methylpyridin-2-yl)methyl)pyrrolidin-3-yl)methyl)piperidine-4-carboxamide] was “++ (++ ≥5 and <6)”.
